Values of other authors, collected in US11524044B2, “Strengthening and tumor eliminating traditional Chinese medicine composition, its preparation method and application” (The First Afiliated Hospital Of Guangzhou University Of …, priority 2020, dated 2022).

Columns and labels:
[1] = test system: human colon cancer, liver cancer, gastric cancer, lung cancer and breast cancer related cells
[2] = test system: ADP induced platelet aggregation

## COc1cc(O)c(-c2c(O)cc(OC)c3c2ccc2cc(O)ccc23)c2c1-c1ccc(O)cc1CC2 [Cirrhopetalanthrin]
[1]
  cytotoxicity: moderate cytotoxicity

## N#C[C@H](O[C@@H]1O[C@H](CO[C@@H]2O[C@H](CO)[C@@H](O)[C@H](O)[C@H]2O)[C@@H](O)[C@H](O)[C@H]1O)c1ccccc1 [amygdalin]
[2]
  inhibition of ADP induced platelet aggregation: inhibit ADP induced platelet aggregation in varying degrees
